According to paper PMC9889419 (Pharmacological Reports, 2022):
Counter-ions that a name gives are not always drawn.

How the values were obtained:
Test in all cases: Radioligand binding
[1] = biological target: D3 (Homo sapiens, UniProt P35462)
Procedure: (§1) Radioligand binding. Radioligand binding assays were performed at Eurofins CEREP (France). The results are expressed as a percent of control specific binding (measured specific binding*100/control specific binding) and as a percent inhibition of control specific binding (100-(measured specific binding*100)/control specific binding) obtained in the presence of the test compounds. The IC50 values (concentration causing a half-maximal inhibition of control specific binding) and Hill coefficients (nH) were determined by non-linear regression analysis of the competition curves generated with mean replicate values using Hill equation curve fitting (Y = D + [A-D]/[1 + (C/C50)^nH], where Y = specific binding, A = left asymptote of the curve, D = right asymptote of the curve, C = compound concentration, C50 = IC50, and nH = slope factor). This analysis was performed using software developed at Cerep (Hill software) and validated by comparison with data generated by the commercial software SigmaPlot® 4.0 for Windows® (© 1997 by SPSS Inc.). The inhibition constants (Ki) were calculated using the Cheng Prusoff equation (Ki = IC50/[1 + L/KD], where L = concentration of radioligand in the assay, and KD = affinity of the radioligand for the receptor). A scatchard plot is used to determine the Kd.

[2] = biological target: T1, 5-HT1A (Homo sapiens, UniProt P08908)
T1 sequence (P08908 1-422): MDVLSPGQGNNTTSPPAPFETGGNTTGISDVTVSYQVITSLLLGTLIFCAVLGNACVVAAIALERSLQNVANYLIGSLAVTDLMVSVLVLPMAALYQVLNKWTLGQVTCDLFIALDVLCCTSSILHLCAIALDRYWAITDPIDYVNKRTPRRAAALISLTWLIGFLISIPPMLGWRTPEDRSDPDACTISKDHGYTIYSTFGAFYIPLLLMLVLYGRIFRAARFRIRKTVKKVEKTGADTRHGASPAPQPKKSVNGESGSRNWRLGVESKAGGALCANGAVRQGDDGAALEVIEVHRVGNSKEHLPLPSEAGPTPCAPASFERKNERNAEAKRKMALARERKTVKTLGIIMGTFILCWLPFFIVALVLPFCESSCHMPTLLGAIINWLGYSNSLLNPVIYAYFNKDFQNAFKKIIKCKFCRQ
Procedure: as §1

[3] = biological target: 5-HT2A (Homo sapiens, UniProt P28223)
Chain of 5-HT2A (P28223 whole entry): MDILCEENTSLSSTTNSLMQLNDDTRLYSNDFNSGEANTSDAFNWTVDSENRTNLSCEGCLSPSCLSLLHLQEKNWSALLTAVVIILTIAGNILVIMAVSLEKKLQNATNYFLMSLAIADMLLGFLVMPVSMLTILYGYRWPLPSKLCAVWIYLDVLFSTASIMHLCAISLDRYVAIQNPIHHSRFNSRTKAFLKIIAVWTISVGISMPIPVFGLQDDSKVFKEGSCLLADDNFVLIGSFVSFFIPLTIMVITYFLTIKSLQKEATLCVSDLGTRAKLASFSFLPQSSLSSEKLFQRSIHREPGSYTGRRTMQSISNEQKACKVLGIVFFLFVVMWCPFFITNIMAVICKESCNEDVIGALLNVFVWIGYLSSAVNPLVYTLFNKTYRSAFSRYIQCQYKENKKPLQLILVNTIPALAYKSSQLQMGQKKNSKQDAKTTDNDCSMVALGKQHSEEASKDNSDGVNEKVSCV
Procedure: as §1

[4] = biological target: T2, M1 (Homo sapiens, UniProt P11229)
T2 sequence (P11229 1-460): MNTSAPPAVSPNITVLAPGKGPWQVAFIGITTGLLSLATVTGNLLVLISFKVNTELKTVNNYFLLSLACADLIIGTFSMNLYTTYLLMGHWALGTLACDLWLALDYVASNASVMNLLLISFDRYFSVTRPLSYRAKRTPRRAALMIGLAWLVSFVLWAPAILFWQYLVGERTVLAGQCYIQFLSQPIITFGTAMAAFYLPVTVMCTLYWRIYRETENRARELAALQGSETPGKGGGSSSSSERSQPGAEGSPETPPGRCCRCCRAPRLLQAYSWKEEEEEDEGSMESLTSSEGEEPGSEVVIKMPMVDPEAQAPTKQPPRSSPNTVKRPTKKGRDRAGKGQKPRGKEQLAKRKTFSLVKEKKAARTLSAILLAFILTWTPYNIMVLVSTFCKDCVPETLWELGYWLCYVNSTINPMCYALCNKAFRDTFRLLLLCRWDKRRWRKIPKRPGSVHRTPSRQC
Procedure: as §1

[5] = biological target: T3, 5-HT2C (Homo sapiens, UniProt P28335)
T3 sequence (P28335 33-458): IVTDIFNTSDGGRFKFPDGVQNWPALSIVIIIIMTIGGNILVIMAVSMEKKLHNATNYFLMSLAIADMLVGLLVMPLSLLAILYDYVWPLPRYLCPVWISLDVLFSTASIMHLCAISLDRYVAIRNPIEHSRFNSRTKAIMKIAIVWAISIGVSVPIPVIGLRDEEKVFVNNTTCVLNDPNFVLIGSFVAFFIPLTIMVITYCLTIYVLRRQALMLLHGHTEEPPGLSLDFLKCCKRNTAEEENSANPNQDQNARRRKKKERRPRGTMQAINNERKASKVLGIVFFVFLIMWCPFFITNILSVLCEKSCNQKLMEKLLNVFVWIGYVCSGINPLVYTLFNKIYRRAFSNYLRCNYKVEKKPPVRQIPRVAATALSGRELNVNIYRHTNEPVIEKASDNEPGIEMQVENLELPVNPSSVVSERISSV
Procedure: as §1

[6] = biological target: dopamine transporter (Homo sapiens, UniProt Q01959)
Chain of dopamine transporter (Q01959 whole entry): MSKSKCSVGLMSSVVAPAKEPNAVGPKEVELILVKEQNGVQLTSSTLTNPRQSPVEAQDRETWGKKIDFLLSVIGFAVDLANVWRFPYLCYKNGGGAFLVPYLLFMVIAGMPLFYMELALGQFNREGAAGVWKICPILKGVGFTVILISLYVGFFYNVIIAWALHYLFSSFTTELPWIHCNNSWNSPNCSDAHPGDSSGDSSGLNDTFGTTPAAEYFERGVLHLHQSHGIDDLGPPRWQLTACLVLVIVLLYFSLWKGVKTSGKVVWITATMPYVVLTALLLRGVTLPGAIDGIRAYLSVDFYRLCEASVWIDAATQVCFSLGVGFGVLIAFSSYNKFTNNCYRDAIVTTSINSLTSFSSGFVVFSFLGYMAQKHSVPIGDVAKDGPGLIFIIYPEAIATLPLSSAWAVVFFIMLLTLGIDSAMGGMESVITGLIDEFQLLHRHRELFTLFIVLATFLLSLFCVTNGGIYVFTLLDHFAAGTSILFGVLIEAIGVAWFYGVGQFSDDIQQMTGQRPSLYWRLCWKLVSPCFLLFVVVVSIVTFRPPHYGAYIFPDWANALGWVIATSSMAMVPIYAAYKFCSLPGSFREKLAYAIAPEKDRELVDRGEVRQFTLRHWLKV
Procedure: as §1

[7] = biological target: T4, D4.4 (Homo sapiens, UniProt P21917)
T4 sequence (P21917 1-419): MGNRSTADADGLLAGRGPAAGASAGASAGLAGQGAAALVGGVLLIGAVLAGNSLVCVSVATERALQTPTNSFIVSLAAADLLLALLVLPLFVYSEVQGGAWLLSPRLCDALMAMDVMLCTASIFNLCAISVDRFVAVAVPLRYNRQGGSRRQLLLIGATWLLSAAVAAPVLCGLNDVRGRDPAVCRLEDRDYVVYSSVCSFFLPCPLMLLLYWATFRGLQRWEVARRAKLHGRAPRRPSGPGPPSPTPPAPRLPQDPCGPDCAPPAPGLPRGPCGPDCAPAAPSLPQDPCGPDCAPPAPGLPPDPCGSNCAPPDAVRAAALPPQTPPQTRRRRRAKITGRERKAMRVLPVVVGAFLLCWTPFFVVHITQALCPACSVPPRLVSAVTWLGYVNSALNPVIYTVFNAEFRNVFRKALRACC
Procedure: as §1

[8] = biological target: D2S (Homo sapiens, UniProt P14416)
Chain of D2S (P14416 1-414 isoform P14416-2): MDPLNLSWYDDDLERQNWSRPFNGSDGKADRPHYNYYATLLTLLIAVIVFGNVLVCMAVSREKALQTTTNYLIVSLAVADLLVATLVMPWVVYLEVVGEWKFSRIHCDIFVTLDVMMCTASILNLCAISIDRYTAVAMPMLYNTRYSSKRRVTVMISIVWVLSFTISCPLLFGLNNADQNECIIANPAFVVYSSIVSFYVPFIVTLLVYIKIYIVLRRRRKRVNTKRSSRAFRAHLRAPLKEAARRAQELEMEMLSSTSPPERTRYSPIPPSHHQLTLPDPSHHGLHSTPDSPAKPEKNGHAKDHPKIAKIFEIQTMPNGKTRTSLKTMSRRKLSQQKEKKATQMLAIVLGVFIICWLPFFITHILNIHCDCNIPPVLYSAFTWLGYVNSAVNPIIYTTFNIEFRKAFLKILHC
Procedure: as §1

[9] = biological target: 5-HT2B (Homo sapiens, UniProt P41595)
Chain of 5-HT2B (P41595 whole entry): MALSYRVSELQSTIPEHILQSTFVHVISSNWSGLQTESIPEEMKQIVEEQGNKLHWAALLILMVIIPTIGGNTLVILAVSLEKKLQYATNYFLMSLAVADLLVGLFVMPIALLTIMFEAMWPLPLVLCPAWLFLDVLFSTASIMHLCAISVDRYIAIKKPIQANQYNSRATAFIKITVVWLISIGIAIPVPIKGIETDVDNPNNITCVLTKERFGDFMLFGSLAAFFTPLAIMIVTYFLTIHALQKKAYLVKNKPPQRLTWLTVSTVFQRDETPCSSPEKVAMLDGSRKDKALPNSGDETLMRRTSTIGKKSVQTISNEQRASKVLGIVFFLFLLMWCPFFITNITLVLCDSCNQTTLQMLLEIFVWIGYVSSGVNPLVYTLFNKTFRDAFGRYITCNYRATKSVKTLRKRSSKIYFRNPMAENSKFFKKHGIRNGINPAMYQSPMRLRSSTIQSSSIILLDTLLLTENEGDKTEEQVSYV
Procedure: as §1

[10] = 3 μM, read-out: % of control specific binding
[11] = 0.001 μM, read-out: % of control specific binding
[12] = 0.01 μM, read-out: % of control specific binding
[13] = 0.1 μM, read-out: % of control specific binding
[14] = 1 μM, read-out: % of control specific binding
[15] = 10 μM, read-out: % of control specific binding
[16] = 100 μM, read-out: % of control specific binding

Chain of D3 (P35462 whole entry): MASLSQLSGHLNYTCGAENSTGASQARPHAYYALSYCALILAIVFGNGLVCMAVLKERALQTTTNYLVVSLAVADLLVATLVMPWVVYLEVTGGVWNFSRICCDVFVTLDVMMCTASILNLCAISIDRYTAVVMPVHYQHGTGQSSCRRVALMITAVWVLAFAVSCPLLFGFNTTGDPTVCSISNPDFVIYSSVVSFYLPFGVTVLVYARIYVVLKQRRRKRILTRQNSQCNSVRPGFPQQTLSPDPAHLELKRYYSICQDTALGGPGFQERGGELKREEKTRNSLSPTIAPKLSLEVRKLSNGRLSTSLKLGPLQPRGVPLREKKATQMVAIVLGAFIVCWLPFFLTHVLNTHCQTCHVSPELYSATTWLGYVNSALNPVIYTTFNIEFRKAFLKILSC

CCC(CO)NCCOc1c(C)cccc1Cl (stereo not drawn) [Compound 4, R,S-2-((2-(2-chloro-6-methylphenoxy)ethyl)amino)butan-1-ol]
% of control specific binding ([1]; 100 μM): 11.9% | % of control specific binding ([2]; 100 μM): 2.1% | % of control specific binding ([3]; 100 μM): 37.1% | % of control specific binding ([4]; 100 μM): 46.7% | % of control specific binding ([5]; 100 μM): 44.6% | % of control specific binding ([6]; 100 μM): 29.6% | % of control specific binding ([7]; 100 μM): 26.6% | % of control specific binding ([8]; 100 μM): 33.3% | % of control specific binding ([9]; 100 μM): 2.3%

CCC(CO)NCCOc1c(C)cccc1Cl (stereo not drawn) [KM-408, R,S-2-((2-(2-chloro-6-methylphenoxy)ethyl)amino)butan-1-ol hydrochloride]
IC50 [1]: 22 µM | Ki [1]: 4.9 µM | remaining activity at 0.003 µM ([1]; 0.003 μM, read-out: % of control specific binding): 104% | remaining activity at 0.03 µM ([1]; 0.03 μM, read-out: % of control specific binding): 103% | remaining activity at 0.3 µM ([1]; 0.3 μM, read-out: % of control specific binding): 102% | remaining activity at 3 µM [1, 10]: 95.3% | remaining activity at 30 µM ([1]; 30 μM, read-out: % of control specific binding): 42.5% | IC50 [2]: 1.3 µM | Ki [2]: 0.8 µM | remaining activity at 0.001 µM [2, 11]: 100% | remaining activity at 0.01 µM [2, 12]: 95.9% | remaining activity at 0.1 µM [2, 13]: 88.6% | remaining activity at 1 µM [2, 14]: 55.6% | remaining activity at 10 µM [2, 15]: 12.5% | IC50 [3]: 55 µM | Ki [3]: 30 µM | remaining activity at 0.1 µM [3, 13]: 104% | remaining activity at 1 µM [3, 14]: 95% | remaining activity at 3 µM [3, 10]: 94.1% | remaining activity at 10 µM [3, 15]: 85.1% | remaining activity at 100 µM [3, 16]: 36.9% | IC50 [4]: 64 µM | Ki [4]: 55 µM | remaining activity at 0.1 µM [4, 13]: 114% | remaining activity at 1 µM [4, 14]: 108% | remaining activity at 3 µM [4, 10]: 123% | remaining activity at 10 µM [4, 15]: 99.7% | remaining activity at 100 µM [4, 16]: 43.1% | IC50 [5]: 77 µM | Ki [5]: 26 µM | remaining activity at 0.1 µM [5, 13]: 95.6% | remaining activity at 1 µM [5, 14]: 87.1% | remaining activity at 3 µM [5, 10]: 95.2% | remaining activity at 10 µM [5, 15]: 82.4% | remaining activity at 100 µM [5, 16]: 40.6% | IC50 [6]: 43 µM | Ki [6]: 23 µM | remaining activity at 0.1 µM [6, 13]: 93.9% | remaining activity at 1 µM [6, 14]: 87.8% | remaining activity at 3 µM [6, 10]: 94.4% | remaining activity at 10 µM [6, 15]: 72.6% | remaining activity at 100 µM [6, 16]: 29.6% | IC50 [7]: 66 µM | Ki [7]: 25 µM | remaining activity at 0.01 µM [7, 12]: 100% | remaining activity at 0.1 µM [7, 13]: 101% | remaining activity at 1 µM [7, 14]: 97.6% | remaining activity at 10 µM [7, 15]: 87.9% | remaining activity at 100 µM [7, 16]: 39.4% | IC50 [8]: 100 µM | Ki [8]: 34 µM | remaining activity at 0.1 µM [8, 13]: 96.2% | remaining activity at 1 µM [8, 14]: 96.5% | remaining activity at 3 µM [8, 10]: 92.8% | remaining activity at 10 µM [8, 15]: 86% | remaining activity at 100 µM [8, 16]: 49.1% | IC50 [9]: 2.4 µM | Ki [9]: 1.2 µM | remaining activity at 0.001 µM [9, 11]: 130% | remaining activity at 0.01 µM [9, 12]: 121% | remaining activity at 0.1 µM [9, 13]: 103% | remaining activity at 1 µM [9, 14]: 88% | remaining activity at 10 µM [9, 15]: 28.3%
